Reference: PubChem BioAssay AID720512 (Broad Institute, 2013)
The source made the active and inactive calls. How the calls were made is not given here.

biological target: Toxin B (TcdB) glycohydrolase, Clostridioides difficile 630; assay: TcdB glycohydrolase inhibitors, dose response, biochemical, cherry-pick, plate reader (AID 720512); conditions: recombinant TcdB glycohydrolase activity

Row | Structure (SMILES) | AC50
1 | CCNC(=O)C[C@H]1CC[C@@H]2[C@H](COc3ccc(NC(=O)c4ccc5c(c4)OCO5)cc3C(=O)N2C)O1 | > 42 µM (inactive)
2 | Cc1ccc(N/N=C/c2c(O)n(-c3ccccc3)c(=O)[nH]c2=O)cc1 | 8.13 µM
3 | N=C(N)c1ccc(N=Nc2c(O)ccc3c2[nH]c2ccccc23)cc1 | > 39 µM (inactive)
4 | C[C@H](CO)N1C[C@H](C)[C@@H](CN(C)C(=O)Nc2ccc(C(F)(F)F)cc2)Oc2c(NS(=O)(=O)c3ccccc3)cccc2C1=O | > 39 µM (inactive)
5 | CN(C)CCNc1cccc2sc3ccc(O)cc3c(=O)c12 | 12.4 µM

same assay, conditions: recombinant TcdB glycohydrolase activity, at 19.5 µM (top of the series)

Row | Structure (SMILES) | activity change, negative = inhibition
6 | CCNC(=O)C[C@@H]1CC[C@H]2[C@H](COc3ccc(NC(C)=O)cc3C(=O)N2C)O1 | inactive
7 | CCN(C(=O)COC(=O)c1cccnc1SC)C1CCCCC1 | inactive
8 | COC(=O)c1sc2nc(SCc3ccccc3C)n(N)c(=O)c2c1C | inactive
9 | CC(=O)Nc1n[nH]c(=S)s1 | inactive
10 | COc1cc(NC(=O)CCc2nnc3ccc(N4CCC(C)CC4)nn23)cc(OC)c1 | inactive
11 | Cc1ccc2c(c1)/C(=C/c1ccccc1C)C(=O)N2 | inactive
12 | C[C@@H]1CN([C@H](C)CO)S(=O)(=O)c2ccc(-c3ccncc3)cc2O[C@@H]1CN(C)Cc1ccc(Oc2ccccc2)cc1 | inactive
13 | COC(=O)C1=C(c2ccc(OCc3ccccc3)cc2)C[C@@H]2CC[C@H]1N2C(=O)NCCCc1ccccc1 | inactive
14 | CC1(C)CC(=O)C(C=Nc2ccc(N)cc2)=C(O)C1 | inactive
15 | Cn1c(=O)[nH]c(=O)c2c1[nH]c(=S)n2Cc1ccccc1 | inactive
16 | Nc1ccc(Sc2ccc(N)cc2)cc1 | inactive
17 | C[C@@H]1CN([C@@H](C)CO)S(=O)(=O)c2ccc(C#Cc3ccncc3)cc2O[C@H]1CN(C)C(=O)C1CC1 | inactive
18 | CCN1/C(=C2\OC(=S)N(C)C2=O)C=Cc2ccccc21 | inactive
19 | COc1ccccc1C1NC(=O)NC(C)=C1C(=O)OC1CCCCC1 (stereo not drawn) | inactive
20 | S=c1[nH]nc(-c2ccccn2)n1/N=C/c1ccc(Cl)cc1 | inactive
21 | Cc1onc(-c2ccccc2)c1C(=O)N(Cc1ccco1)Cc1cccs1 | inactive
22 | Cc1cccc(CN2CCN(c3ncccn3)CC2)c1 | inactive
23 | O=c1c([N+](=O)[O-])cccn1Cc1ccc(F)cc1Cl | inactive
24 | O=C(NCc1cc(C(F)(F)F)cc(C(F)(F)F)c1)C1CC(c2c(Cl)cccc2Cl)=NO1 (stereo not drawn) | inactive
25 | COc1cc(-c2noc(C)c2C#CC2(O)CCCCC2)cc(OC)c1OC | inactive
26 | O=[N+]([O-])c1ccc(/C=C/c2ccc3ccccc3n2)cc1 | inactive
27 | CC1CN=C(Nc2cccc(S(=O)(=O)N(C)C)c2)S1 (stereo not drawn) | inactive
28 | CN(C)CCNc1ccc(CO)c2sc3ccc(O)cc3c(=O)c12 | inactive
29 | O=C(O)c1cccnc1SCc1ccccc1Cl | inactive
30 | O=c1c2ccccc2nc(/C=C/c2ccc(O)cc2)n1-c1ccccc1O | inactive
31 | COC(=O)C1=C(c2ccc(F)cc2OCc2ccccc2)C[C@@H]2CC[C@H]1N2C(=O)NCCOc1ccccc1 | inactive
32 | CCOc1cc(/C=N/O)ccc1OCc1ccc(C)cc1 | inactive

Row | Structure (SMILES) | activity change, negative = inhibition
33 | C/C(CCc1ccccc1)=N\NC(=O)C1C2CCCCC21 (stereo not drawn) | inactive
34 | CC(=O)c1ccc(Nc2ccc(-c3ccccc3F)nn2)cc1 | inactive
35 | COc1ccc(/C=C\c2onc(C)c2S(=O)(=O)N2CCC(C(=O)NCCC(C)C)CC2)cc1 | inactive
36 | Cc1ccc(Cc2c(-c3ccc(C)cc3)nc3ccc(Cl)cn23)cc1 | inactive
37 | CN(CCN1CCOCC1)C(=O)CC1C(=O)NCCN1Cc1ccccc1C(F)(F)F (stereo not drawn) | inactive
38 | CCOC(=O)/C=c1/s/c(=C/c2ccc3cc(OC)ccc3c2)c(=O)n1CC(=O)NCC1CCCO1 (stereo not drawn) | inactive
39 | CC(C)(C)OCC(O)CN1CCN(C(=O)c2ccccc2)CC1 (stereo not drawn) | inactive
40 | Cc1nn2cc(-c3cccc(Cl)c3)cnc2c1Br | inactive
41 | COc1ccc(OC)c2sc(NNC(=O)C3COc4ccccc4O3)nc12 (stereo not drawn) | inactive
42 | O=C(c1cn(-c2ccccc2)nc1-c1ccncc1)n1nnc2ccccc21 | inactive
43 | COc1cc(/C=C(\C#N)C(=O)Nc2ccc3c(c2)OCCO3)ccc1O | inactive
44 | CC(=O)Nc1ccc(S(=O)(=O)N2CCCC(C(=O)O)C2)cc1 (stereo not drawn) | inactive
45 | C=CCc1ccc(O)c(-c2ccc(O)c(CC=C)c2)c1 | inactive
46 | CNC(=O)C[C@@H]1CC[C@@H]2[C@H](COc3ccc(NS(=O)(=O)c4ccccc4C)cc3C(=O)N2C)O1 | inactive
47 | N/C(=N\N=C\c1ccc(O)cc1)c1nonc1N | inactive
48 | Cc1cc(-c2ccc(NS(=O)(=O)c3ccccc3)c(C)c2)ccc1NS(=O)(=O)c1ccccc1 | inactive
49 | O=C(Nc1nnc(-c2ccco2)o1)C1CC1 | inactive
50 | Cc1cc(C)nc(SCC(=O)c2ccc(O)c(O)c2)n1 | inactive
51 | CCCC(=O)Nc1ccc2c(c1)OC[C@H](C)N(CC1CCCC1)C[C@H](C)[C@@H](OC)CN(C)C2=O | inactive
52 | Cc1cc(C(C)(C)C)cc(CN2CCN(S(=O)(=O)c3cccs3)CC2)c1O | inactive
53 | O=C(NCc1ccccc1)[C@@H]1CCCN1C(=O)[C@@H]1CCCN1C(=O)c1cccs1 | inactive
54 | CN1C(=O)C(c2nnc(Nc3cccc4ccccc34)s2)C2CC1(C)Oc1ccccc12 (stereo not drawn) | inactive
55 | Cc1ccc2sc(NNC(=O)C3COc4ccccc4O3)nc2c1C (stereo not drawn) | inactive
56 | O=C1Cc2cc(S(=O)(=O)NCc3ccccc3Cl)cc3c2N1CCC3 | inactive
57 | CCOC(CCNC(=O)c1cn(CCOC)c(=O)c2c1c1ccccc1n2C)OCC | inactive
58 | O=C(CNS(=O)(=O)c1ccc([N+](=O)[O-])cc1)N/N=C\c1ccc(O)cc1 | inactive
